# Laboratory results: patent publication US5075287A, “Muramyl peptide derivatives and immunoregulating compositions containing them” (priority 1989, dated 1991)
# Read-outs that look alike come from different tables or passages of the source.
# Columns and labels:
# [1] = test system: hepatitis B virus surface antigen (HBs); assay: Hepatitis-vaccine enhancing activity (adjuvant activity): anti-HBs IgG in mouse serum by ELISA; type: in vivo, female CDF1 mice; conditions: Experiment 2, 2000-fold dilution
# Procedure: A compound of the present invention was dissolved in lipidmicrosphere (1 mg/ml). On the other hand, a solution of hepatitis B virus surface antigen (HBs) in physiological saline was prepared (50 μg/ml). The above solutions in equal amounts were mixed to prepare a test solution. A control solution was prepared by the exclusion of the compound of the present invention from said test solution. A mixture of a suspension of aluminium hydroxide gel in physiological saline (1 mg/ml) and said hepatitis vaccine preparation in equal amounts was prepared as another control solution. The test solution (0.2 ml) was intraperitoneally administered to each mouse in one group consisting of seven female CDF1 mice.
# Blood samples were collected from the fundus ocluli vein of each mouse every week after the administration and then centrifuged to obtain serums. Three weeks after the administration, 0.2 ml of the test liquid was intraperitoneally administered again to each mouse for secondary stimulation. Then blood collecting was conducted every week to obtain serums after the application of the secondary stimulation, in the same manner as that described above.
# The amount of the IgG antibodies against the hepatitis B virus surface antigens (HBs) in the serums thus obtained was determined with an ELISA method.
# [2] = test system: influenza HA vaccine (B/Nagasaki/1/87 strain); type: in vivo, female CDF1 mice; conditions: Experiment 2, 8000-fold dilution
# [3] = 4 W (after secondary stimulation at 3 weeks)
# [4] = 5 W (after secondary stimulation at 3 weeks)
Compound,Anti-HBs IgG antibody level in serum (ELISA absorbance at 415 nm) ([1]; 1 W) [O.D 415 nm],Anti-HBs IgG antibody level in serum (ELISA absorbance at 415 nm) ([1]; 2 W) [O.D 415 nm],Anti-HBs IgG antibody level in serum (ELISA absorbance at 415 nm) ([1]; 3 W) [O.D 415 nm],"Anti-HBs IgG antibody level in serum (ELISA absorbance at 415 nm) [1, 3] [O.D 415 nm]","Anti-HBs IgG antibody level in serum (ELISA absorbance at 415 nm) [1, 4] [O.D 415 nm]",Anti HA serum antigen value (average value ± S.D.) ([2]; 1 W) [O.D 415 nm],Anti HA serum antigen value (average value ± S.D.) ([2]; 2 W) [O.D 415 nm],Anti HA serum antigen value (average value ± S.D.) ([2]; 3 W) [O.D 415 nm],"Anti HA serum antigen value (average value ± S.D.) [2, 3] [O.D 415 nm]","Anti HA serum antigen value (average value ± S.D.) [2, 4] [O.D 415 nm]"
"CCCCCCCCCCCCCCCCCC(=O)O[C@H](CCCCCCCCCCC)CC(=O)S[C@@H]1O[C@H](CO)[C@@H](O)[C@H](O[C@H](C)C(=O)N[C@@H](C)C(=O)N[C@H](CCC(=O)OC)C(N)=O)[C@H]1NC(C)=O [Example 23, N-[2-0-{2-Acetamido-2,3-dideoxy-1-S-((3R)-3-octadecanoyloxytetradecanoyl)-1-thio-β-D-glucopyranos-3-yl}-D-lactoyl]-L-alanyl-D-isoglutamine methylester]",0.004 ± 0.001,0.051 ± 0.003,0.092 ± 0.004,0.639 ± 0.003,0.626 ± 0.008,0.008 ± 0.005,0.096 ± 0.001,0.183 ± 0.004,0.949 ± 0.006,1.030 ± 0.003
"CCCCCCCCCCCCCCCCCC(=O)OC[C@H]1O[C@@H](SC(=O)C[C@@H](CCCCCCCCCCC)OC(=O)CCCCCCCCCCCCCCCCC)[C@H](NC(C)=O)[C@@H](O[C@H](C)C(=O)N[C@@H](C)C(=O)N[C@H](CCC(=O)O)C(N)=O)[C@@H]1O [Example 24, N-[2-0-{2-Acetamido-2,3-dideoxy-6-0-octadecanoyl-1-S-((3R)-3-octadecanoyloxytetradecanoyl)-1-thio-β-D-glucopyranos-3-yl}-D-lactoyl]-L-alanyl-D-isoglutamine]",0.007 ± 0.001,0.034 ± 0.001,0.050 ± 0.000,0.579 ± 0.007,0.513 ± 0.011,0.006 ± 0.001,0.085 ± 0.005,0.113 ± 0.007,0.771 ± 0.003,0.791 ± 0.004
"CCCCCCCCCCCCCC(=O)O[C@H](CCCCCCCCCCC)CC(=O)O[C@H]1O[C@H](CO)[C@@H](O)[C@H](O[C@H](C)C(=O)N[C@@H](C)C(=O)N[C@H](CCC(=O)OC)C(N)=O)[C@H]1NC(C)=O [Example 25, N-[2-0-{2-Acetamido-2,3-dideoxy-1-0-((3R)-3-tetradecanoyloxytetradecanoyl}-α-D-glucopyranos-3-yl}-D-lactoyl]-L-alanyl-D-isoglutamine methylester]",0.004 ± 0.002,0.021 ± 0.001,0.031 ± 0.004,0.402 ± 0.011,0.434 ± 0.021,0.009 ± 0.001,0.109 ± 0.002,0.149 ± 0.004,0.623 ± 0.019,0.719 ± 0.021
"CCCCCCCCCCCCCCCCCC(=O)OC[C@H]1O[C@H](OC(=O)C[C@@H](CCCCCCCCCCC)OC(=O)CCCCCCCCCCCCC)[C@H](NC(C)=O)[C@@H](O[C@H](C)C(=O)N[C@@H](C)C(=O)N[C@H](CCC(=O)OC)C(N)=O)[C@@H]1O [Example 26, N-[2-0-{2-Acetamido-2,3-dideoxy-6-0-octadecanoyl-1-0-((3R)-3-tetradecanoyloxytetradecanoyl)-α-D-glucopyranos-3-yl}-D-lactoyl]-L-alanyl-D-isogluatmine methylester]",0.001 ± 0.006,0.015 ± 0.006,0.032 ± 0.008,0.192 ± 0.002,0.163 ± 0.004,0.004 ± 0.003,0.038 ± 0.001,0.054 ± 0.001,0.208 ± 0.001,0.206 ± 0.002
"CCCCCCCCCCCCCCCCCCCCCCCC(=O)O[C@H](CCCCCCCCCCC)CC(=O)S[C@@H]1O[C@H](CO)[C@@H](O)[C@H](O[C@H](C)C(=O)N[C@@H](C)C(=O)N[C@H](CCC(=O)OC)C(N)=O)[C@H]1NC(C)=O [Example 27, N-[2-0-{2-Acetamido-2,3-dideoxy-1-S-((3R)-3-tetracosanoyloxytetradecanoyl)-1-thio-β-D-glucopyranos-3-yl}-D-lactoyl]-L-alanyl-D-isoglutamine methylester]",0.003 ± 0.003,0.031 ± 0.002,0.052 ± 0.000,0.580 ± 0.016,0.573 ± 0.013,0,0.110 ± 0.003,0.161 ± 0.003,0.751 ± 0.004,0.805 ± 0.008
